Among the test systems are DLD-1; DMS-114; DMS-273; HOP-18; KM-20L2; M19-MEL; RXF 631; MDA-N; PC-3.
Holding throughout (experiment): DTP human tumour cell line panel, 48 h

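Values below derive from 48-hour exposures of cells grown in 96-well plates, with endpoints linearly interpolated between the two concentrations bracketing the appropriate inhibition level. GI50 = concentration required for 50% inhibition of growth.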 Activity calls are given as the source filed them. Cut-off read from the data, not from the text of the source: active = GI50 up to about 1.1 µM and inactive = higher.

A word on the GI50: it is the concentration that inhibits growth by half.

Turning to `COc1nc(O)c(N)c(NC2OC(CO)C(O)C(O)C2O)n1` (centres undefined), the GI50 with DLD-1, in the assay on DMS-114, in the assay with DMS-273, in the assay on HOP-18, in the assay on KM-20L2 and in the assay with M19-MEL was > 100 µM (inactive) throughout.

With `CCC(C(C)N1CC(=O)NC(=O)C1)N1CC(=O)NC(=O)C1` (centres undefined), the GI50 in the assay on DLD-1 is > 31.3 µM (inactive); in the assay on DMS-114, 7.01 µM (inactive); in the assay on DMS-273, 12.3 µM (inactive); with HOP-18, > 100 µM (inactive); in the assay with KM-20L2 it was > 69.2 µM (inactive); in the assay on M19-MEL, 41.4 µM (inactive).

As for `CCCCSCC(NC(=O)/C=C/c1c(C)[nH]c(=O)[nH]c1=O)C(=O)OC` (centres undefined), the GI50 in the assay with DLD-1 is 54.8 µM (inactive); with DMS-114, 30.1 µM (inactive); with DMS-273, 88.3 µM (inactive); with HOP-18, 61.2 µM (inactive); in the assay on KM-20L2, 61.7 µM (inactive); in the assay with M19-MEL, 38.4 µM (inactive).

As for `CCOC(=O)C1=C(Nc2ccccc2)OC/C1=N\NC(=O)Cc1ccccc1`, the GI50 in the assay with DLD-1, in the assay with DMS-114, with HOP-18, in the assay with KM-20L2, in the assay with M19-MEL and in the assay with RXF 631 was > 50 µM (inactive) throughout.

For the molecule `CN(c1nc(=[N+](C)C)ss1)C1CCCCC1`, the GI50 in the assay on DLD-1 was > 100 µM (inactive); with DMS-114, 32.1 µM (inactive); in the assay on DMS-273 it was > 100 µM (inactive); in the assay on HOP-18 it was > 100 µM (inactive); with KM-20L2, > 100 µM (inactive); in the assay on M19-MEL it was > 100 µM (inactive). For the same molecule, the GI50 with RXF 631 was > 100 µM (inactive).

Consider `CSc1nc(NC(=O)O)c(N(C(C)=O)C(=O)O)c(=O)n1C`, for which the GI50 with DLD-1, with DMS-114, in the assay on DMS-273, in the assay on KM-20L2, with M19-MEL and in the assay with RXF 631 was > 100 µM (inactive) throughout.

In the case of `O=C(O)C1Cc2c([nH]c3ccccc23)C=N1` (centres undefined), the GI50 in the assay on DLD-1 is > 100 µM (inactive); in the assay on DMS-114, > 100 µM (inactive); in the assay with DMS-273, > 100 µM (inactive); in the assay with HOP-18, 30.3 µM (inactive); in the assay with KM-20L2, > 100 µM (inactive); in the assay on M19-MEL, > 100 µM (inactive).

On to `Cc1cc(C(C)(C)C)cc(Cc2cc(C(C)(C)C)cc(Cc3cc(C(C)(C)C)cc(C)c3O)c2O)c1O`, for which the GI50 in the assay with DLD-1 is 6.05 µM (inactive); with DMS-114 it was 4.21 µM (inactive); in the assay on DMS-273, 10.9 µM (inactive); with HOP-18 it was 15.4 µM (inactive); in the assay with KM-20L2, 16.1 µM (inactive); in the assay on M19-MEL it was 3.77 µM (inactive).

With `Cc1cc(Cl)ccc1/N=C1/NC(=O)C(CC(=O)Nc2cccc(C)c2C)S1` (centres undefined), the GI50 in the assay with DLD-1 was 33.4 µM (inactive); with DMS-114, 22.8 µM (inactive); in the assay with DMS-273, 26.1 µM (inactive); with KM-20L2, 29.9 µM (inactive); in the assay with M19-MEL, 35.1 µM (inactive); in the assay on RXF 631, 26.4 µM (inactive).

Take `CCCCN(CCCC)C(=O)C(=O)C(C#N)c1ccc(C)cc1` (centres undefined): the GI50 in the assay with DLD-1, in the assay on DMS-114, with DMS-273, with HOP-18, with KM-20L2 and in the assay on M19-MEL was > 100 µM (inactive) in each case.

Turning to `CCC1=CCN(c2cc(C)ccn2)OC1c1ccc(OC)cc1` (centres undefined), the GI50 with DLD-1 is 30.2 µM (inactive); in the assay with DMS-114, 27.9 µM (inactive); in the assay with KM-20L2, 30.3 µM (inactive); in the assay with M19-MEL, 31.5 µM (inactive); in the assay with RXF 631 it was 61.2 µM (inactive).

Take `CCCCC1=CSC(c2ccccc2)=C(c2ccccc2)S1`: the GI50 with DLD-1 is 82.6 µM (inactive); in the assay on DMS-114 it was > 100 µM (inactive); with DMS-273 it was 26.7 µM (inactive); with HOP-18, > 100 µM (inactive); with KM-20L2, 42.8 µM (inactive); in the assay on M19-MEL, 38.9 µM (inactive). Besides, in the assay with RXF 631, the GI50 is > 100 µM (inactive).

With `CCCc1c(C(=O)OCC)[nH]c(-c2ccc(-c3[nH]c(C(=O)OCC)c(CCC)c3C(=O)OCC)o2)c1C(=O)OCC`, the GI50 in the assay with DLD-1, with DMS-114, in the assay on DMS-273, with HOP-18, in the assay with KM-20L2 and in the assay on M19-MEL was > 100 µM (inactive) each time.

As to `CC1C=CC(=O)C(n2cc(F)c(=O)[nH]c2=O)O1` (centres undefined), the GI50 in the assay on DLD-1 was 18.6 µM (inactive); in the assay with DMS-114 it was 15.9 µM (inactive); in the assay on DMS-273, 21.4 µM (inactive); in the assay on HOP-18, 10.8 µM (inactive); with KM-20L2, 21.3 µM (inactive); in the assay on M19-MEL, 18.5 µM (inactive). Besides, in the assay on RXF 631, the GI50 is 19.7 µM (inactive).

`Cc1ccccc1NC(=O)C(=O)C1CN(c2ccccc2)N=C1N` (centres undefined): the GI50 with DLD-1, with KM-20L2, in the assay on M19-MEL and in the assay on RXF 631 was > 100 µM (inactive) each time.

`COc1cc(/C=C/C(=O)Oc2ccc(NC(C)=O)cc2)ccc1C(=O)OCc1ccccc1`: the GI50 with DLD-1 is > 100 µM (inactive); with DMS-114 it was > 90.8 µM (inactive); in the assay with DMS-273 it was 78 µM (inactive); with HOP-18 it was > 100 µM (inactive); in the assay with KM-20L2 it was > 100 µM (inactive); in the assay on M19-MEL it was > 100 µM (inactive). Moreover, the GI50 with MDA-N and in the assay on PC-3 was > 100 µM (inactive) in each case.

As to `CC1Cc2c(N)nc(N3CCOCC3)nc2NC1=O` (centres undefined), the GI50 in the assay with DLD-1, with DMS-114, with DMS-273, with HOP-18, in the assay on KM-20L2 and in the assay with M19-MEL was > 100 µM (inactive) each time.

Turning to `CC(=O)O[C@H]1CC[C@@]2(C)C(=CC[C@@H]3C2CC[C@]2(C)C(=O)NC(=O)CC32)C1` (some centres undefined), the GI50 in the assay on DLD-1 is > 100 µM (inactive); in the assay with DMS-114, > 79.6 µM (inactive); in the assay with DMS-273, 62.7 µM (inactive); in the assay on HOP-18, > 100 µM (inactive); in the assay on KM-20L2, > 100 µM (inactive); in the assay with M19-MEL it was > 100 µM (inactive). Besides, the GI50 in the assay on RXF 631 is > 100 µM (inactive).

In the case of `Cc1ccc(C2=C(c3ccccc3)C(Br)(c3ccc(C)cc3)C(c3ccccc3)=C2c2ccc(C)cc2)cc1`, the GI50 with DLD-1 was > 100 µM (inactive); with DMS-114, > 100 µM (inactive); with DMS-273, > 100 µM (inactive); in the assay on HOP-18, 2.09 µM (inactive); in the assay with KM-20L2 it was > 100 µM (inactive); with M19-MEL, > 100 µM (inactive). Besides, in the assay on RXF 631, the GI50 is > 100 µM (inactive).

With `NC(=O)OCC1=C(COC(N)=O)C(=O)c2c(O)ccc(O)c2C1=O`, the GI50 was > 100 µM (inactive) in the assay on DLD-1; > 100 µM (inactive) in the assay on DMS-114; > 100 µM (inactive) in the assay on DMS-273; > 100 µM (inactive) in the assay on HOP-18; > 100 µM (inactive) with KM-20L2; 3.46 µM (inactive) in the assay with M19-MEL.

Turning to `COC(=O)C1=C2CCC(=O)[C@@]2(C)C(OC(C)=O)C=CC1` (some centres undefined), the GI50 was 41.6 µM (inactive) with DLD-1; 32.7 µM (inactive) in the assay on DMS-114; 36.6 µM (inactive) in the assay on DMS-273; > 100 µM (inactive) in the assay on KM-20L2; > 100 µM (inactive) in the assay with M19-MEL; 20.5 µM (inactive) in the assay on RXF 631.

As to `CC1CCCCc2nc3c(c(=O)n21)CCCC3` (centres undefined), the GI50 with DLD-1 was > 100 µM (inactive); in the assay on DMS-273, > 100 µM (inactive); in the assay with KM-20L2, > 100 µM (inactive); in the assay with M19-MEL, > 100 µM (inactive); in the assay on RXF 631, 29.4 µM (inactive).

Turning to `CCCCc1ccc(-n2c3nc(=O)n(C)c(=O)c-3nc3ccccc32)cc1`, the GI50 with DMS-114 was 4.7 µM (inactive); with DMS-273, 10.3 µM (inactive); in the assay with HOP-18 it was 10.8 µM (inactive); in the assay on KM-20L2 it was 4.4 µM (inactive); in the assay with M19-MEL it was 1.5 µM (inactive); with RXF 631 it was 11.9 µM (inactive).

On to `Cc1ccc(S(=O)(=O)NC(=O)Nc2nc(Cl)cc(Cl)n2)cc1`, for which the GI50 in the assay with DLD-1 was > 100 µM (inactive); in the assay on DMS-114 it was 96.4 µM (inactive); in the assay with HOP-18, > 100 µM (inactive); with KM-20L2, > 100 µM (inactive); in the assay with M19-MEL it was > 100 µM (inactive); with RXF 631, > 100 µM (inactive).

As to `[O-][n+]1ccccc1S` [PYRITHIONE ZINC], the concentration for 50% growth inhibition (GI50) in the assay with DLD-1 is 0.115 µM (active); in the assay with DMS-114, 0.419 µM (active); in the assay with DMS-273, 0.366 µM (active); with HOP-18, 3.78 µM (inactive); in the assay with KM-20L2, 1.04 µM (active); in the assay on M19-MEL it was 0.562 µM (active). The GI50 in the assay with RXF 631 is 0.968 µM (active).

The values above are taken from ChEMBL document CHEMBL1201862, “PubChem BioAssay data set” (2004).
